Assay: Stability in CDC13 in the NMR tube at room temperature
Format: physicochemical
Conditions: decomposed in one day

stability in CDC13: not be stable
SMILES: COc1ccc2c(c1)c(CCNC(C)=O)cn2C(CC(C)C)OOC(C)(C)CC(OC(C)=O)OC(C)=O (stereo not shown) [Compound 7]

— patent US10689341B2, “Small molecule N-(alpha-peroxy) indole compounds and methods of use” (King Abdullah University of Science and Technology, priority 2016, dated 2020)
